In patent US20250057859A1, “CANNABICHROMENEQUINONE AND ANALOGUES THEREOF, AND METHOD OF USING COMPOSITIONS THEREOF AS ANTI-INFLAMMATORY AGENTS” (Juva Life, Inc., priority 2021, published 2025):

These compounds were tested on IL-10 (assay: IL-10 secretion assay in human PBMCs (PHA-M-stimulated, ELISA)). Settings: PBMC, PHA-M 10 ug/mL 40 hr, read-out: IL10 inhibitory activity IC50.
Format: cell-based
Protocol: Fetal bovine serum (FBS) was obtained from ThermoFisher (Cat #16000044). • Other reagents: 96well TC plates were obtained from ThermoFisher (Cat #07-2000-90).
Cryopreserved PBMCs were thawed in a water bath and transferred to 50 mL polypropylene tubes. The cells were washed two times with 25 mL of RPMI medium supplemented with 5% of regular FBS and re-suspended at a density of 1.5×10^6 cells/mL. The cells were plated into 96 well TC plate (100 uL/well). Serially diluted compound was added to the cells in duplicate wells for each concentration. Control wells received DMSO only (0.3% final). The cells were pre-incubated with compound for 2 hr. After pre-incubation, the cells were stimulated by PHA-M (10 ug/mL) for 40 hr. Control samples with and without PHA-M in the absence of compound were assembled in each test plate. IL-10 was detected in media supernatants by using a sandwich anti-IL10 ELISA kit (BD Biosciences) according to protocol provided by the manufacturer. ELISA readout (optical density at 450 nm) is commensurable with the amount of IL-10 produced by the cells. Assay window was determined in each experiment by comparing average OD450 values in stimulated and un-stimulated samples in the absence of compound. ELISA calibration was performed in each detection plate using serially diluted recombinant human IL-10 standard to ensure that OD450 values for all test samples were within linear range of detection.%-Inhibition by compound was calculated using following equation:
[formula] • where OD450100% is optical density in control samples stimulated with PHA-M without compound, OD4500% is optical density in unstimulated control samples, and OD450compound is optical density in a sample stimulated with PHA-M in the presence of compound. The calculated %-Inh values were plotted against compound concentration. To determine IC50 values, dose-response curves were fitted by a 4-parameter sigmoid inhibition model using XLFit® software (IDBS).

| Compound | IC50 |
| --- | --- |
| CCCCCC1=C(NCCC)C(=O)C2=C(OC(C)(CCC=C(C)C)C=C2)C1=O (centres unmarked) [Formula XXV] | > 10000 nM |
| CC(C)=CCCC1(C)C=CC2=C(O1)C(=O)c1ccccc1C2=O (centres unmarked) [Formula XXVII] | > 10000 nM |
| CCCCCc1cc(OC)c2c(c1OC)OC(C)(CCC=C(C)C)C=C2 (centres unmarked) [Formula XXIV] | > 10000 nM |
| CCCCCc1cc(OC(C)=O)c2c(c1OC(C)=O)OC(C)(CCC=C(C)C)C=C2 (centres unmarked) [Formula XXIII] | 920 nM |
| CCCCCC1=CC(=O)C2=C(O[C@](C)(CCC=C(C)C)C=C2)C1=O [Formula XXVI] | 380 nM |
| CCCCCC1=CC(=O)C2=C(OC(C)(CCC=C(C)C)C=C2)C1=O (centres unmarked) [Formula II] | 780 nM |
| CCCCCc1cc(O)c2c(c1O)OC(C)(CCC=C(C)C)C=C2 (centres unmarked) [Formula XXII] | 920 nM |
| CCCCCC1=C(NCC)C(=O)C2=C(OC(C)(CCC=C(C)C)C=C2)C1=O (centres unmarked) [Formula XXVIII] | > 10000 nM |
